Measurements: ChEMBL document CHEMBL1275440, “In vitro activity of telavancin against resistant gram-positive bacteria” (2008)
Converted amounts (≈) assume the structure as drawn. The source made the active and inactive calls. The rule behind the calls is not given here.

How the values were obtained:
Streptococcus pneumoniae [1] = assay: Antibacterial activity against multidrug-resistant Streptococcus pneumoniae clinical isolate by broth microdilution method; type: functional
[2] = test system: Streptococcus constellatus; assay: Antibacterial activity against Streptococcus constellatus clinical isolate assessed as susceptibility level by broth microdilution method; type: functional
[3] = test system: Streptococcus intermedius; assay: Antibacterial activity against Streptococcus intermedius clinical isolate by broth microdilution method; type: functional
Streptococcus pyogenes [4] = assay: Antibacterial activity against Streptococcus pyogenes group A clinical isolate by broth microdilution method; type: functional
Streptococcus pneumoniae [5] = assay: Antibacterial activity against penicillin intermediate Streptococcus pneumoniae clinical isolate assessed as susceptibility level by broth microdilution method; type: functional
Streptococcus pyogenes [6] = assay: Antibacterial activity against Streptococcus pyogenes group A clinical isolate assessed as susceptibility level by broth microdilution method; type: functional
Streptococcus pneumoniae [7] = assay: Antibacterial activity against penicillin intermediate Streptococcus pneumoniae clinical isolate by broth microdilution method; type: functional
Streptococcus oralis [8] = assay: Antibacterial activity against Streptococcus oralis clinical isolate by broth microdilution method; type: functional
Streptococcus pneumoniae [9] = assay: Antibacterial activity against penicillin resistant Streptococcus pneumoniae clinical isolate assessed as susceptibility level by broth microdilution method; type: functional
Streptococcus agalactiae [10] = assay: Antibacterial activity against Streptococcus agalactiae group B clinical isolate assessed as susceptibility level by broth microdilution method; type: functional
Streptococcus mitis [11] = assay: Antibacterial activity against Streptococcus mitis clinical isolate by broth microdilution method; type: functional
Streptococcus viridans [12] = assay: Antibacterial activity against Streptococcus viridans clinical isolate by broth microdilution method; type: functional
Streptococcus oralis [13] = assay: Antibacterial activity against Streptococcus oralis clinical isolate assessed as susceptibility level by broth microdilution method; type: functional
Streptococcus viridans [14] = assay: Antibacterial activity against Streptococcus viridans clinical isolate assessed as susceptibility level by broth microdilution method; type: functional
Streptococcus pneumoniae [15] = assay: Antibacterial activity against multidrug-resistant Streptococcus pneumoniae clinical isolate assessed as susceptibility level by broth microdilution method; type: functional
Streptococcus agalactiae [16] = assay: Antibacterial activity against Streptococcus agalactiae group B clinical isolate by broth microdilution method; type: functional
[17] = test system: Streptococcus constellatus; assay: Antibacterial activity against Streptococcus constellatus clinical isolate by broth microdilution method; type: functional
[18] = test system: Streptococcus intermedius; assay: Antibacterial activity against Streptococcus intermedius clinical isolate assessed as susceptibility level by broth microdilution method; type: functional
Streptococcus mitis [19] = assay: Antibacterial activity against Streptococcus mitis clinical isolate assessed as susceptibility level by broth microdilution method; type: functional
Streptococcus pneumoniae [20] = assay: Antibacterial activity against penicillin resistant Streptococcus pneumoniae clinical isolate by broth microdilution method; type: functional

SMILES | MIC50 (Streptococcus pneumoniae [1]) [µg/mL] | MIC [3] [µg/mL] | MIC50 [3] | MIC90 [3] | MIC50 (Streptococcus pyogenes [4]) [µg/mL] | MIC90 (Streptococcus pyogenes [4]) [µg/mL] | Activity (Streptococcus pneumoniae [5]) [%] | MIC50 (Streptococcus pneumoniae [7]) [µg/mL] | MIC90 (Streptococcus pneumoniae [7]) [µg/mL] | MIC (Streptococcus oralis [8]) [µg/mL] | MIC50 (Streptococcus oralis [8]) | MIC90 (Streptococcus oralis [8]) | MIC (Streptococcus mitis [11]) [µg/mL] | MIC50 (Streptococcus mitis [11]) | MIC90 (Streptococcus mitis [11]) | MIC (Streptococcus viridans [12]) [µg/mL] | MIC50 (Streptococcus viridans [12]) | MIC90 (Streptococcus viridans [12]) | MIC50 (Streptococcus agalactiae [16]) [µg/mL] | MIC90 (Streptococcus agalactiae [16]) [µg/mL] | also measured
O=C(O)c1cn(C2CC2)c2cc(N3CCNCC3)c(F)cc2c1=O | – | – | – | – | – | – | – | – | – | – | – | – | – | – | – | – | – | – | – | – | MIC50 (Enterococcus faecalis): inactive; MIC90 (Enterococcus faecalis): inactive
CO/N=C(\C(=O)N[C@@H]1C(=O)N2C(C(=O)O)=C(CSc3nc(=O)c(O)nn3C)CS[C@H]12)c1csc(N)n1 [CEFTRIAXONE] | 1 (≈ 1.8 µM) | 0.03 (≈ 0.0541 µM) | inactive | inactive | ≤ 0.015 | 0.12 (≈ 0.216 µM) | 92 | 0.5 (≈ 0.902 µM) | 1 (≈ 1.8 µM) | 0.03 (≈ 0.0541 µM) | inactive | inactive | 0.03 (≈ 0.0541 µM) | inactive | inactive | 0.03 (≈ 0.0541 µM) | inactive | inactive | 0.06 (≈ 0.108 µM) | 0.06 (≈ 0.108 µM) | MIC90 (Streptococcus pneumoniae [1]): 2 µg/mL (≈ 3.61 µM); Activity [2]: 75%; MIC (Streptococcus pyogenes [4]): ≤ 0.015 µg/mL; Activity (Streptococcus pyogenes [6]): 92%; Activity (Streptococcus pneumoniae [9]): 73%; Activity (Streptococcus agalactiae [10]): 96%; Activity (Streptococcus oralis [13]): 75%; Activity (Streptococcus viridans [14]): 75%; Activity (Streptococcus pneumoniae [15]): 77%; MIC [17]: 0.03 µg/mL (≈ 0.0541 µM); MIC50 [17]: inactive; MIC90 [17]: inactive; Activity [18]: 75%; Activity (Streptococcus mitis [19]): 75%; MIC50 (Streptococcus pneumoniae [20]): 1 µg/mL (≈ 1.8 µM); MIC90 (Streptococcus pneumoniae [20]): 2 µg/mL (≈ 3.61 µM)
CO/N=C(\C(=O)N[C@@H]1C(=O)N2C(C(=O)O)=C(COC(N)=O)CS[C@H]12)c1ccco1 [CEFUROXIME] | > 4 | ≤ 0.12 | inactive | inactive | ≤ 0.12 | 0.25 (≈ 0.589 µM) | 17 | 2 (≈ 4.71 µM) | 4 (≈ 9.43 µM) | ≤ 0.12 | inactive | inactive | ≤ 0.12 | inactive | inactive | ≤ 0.12 | inactive | inactive | ≤ 0.12 | ≤ 0.12 | MIC90 (Streptococcus pneumoniae [1]): > 4 µg/mL; MIC (Streptococcus pyogenes [4]): ≤ 0.12 µg/mL; Activity (Streptococcus pneumoniae [9]): 2%; Activity (Streptococcus pneumoniae [15]): 2%; MIC (Streptococcus agalactiae [16]): ≤ 0.12 µg/mL; MIC [17]: ≤ 0.12 µg/mL; MIC50 [17]: inactive; MIC90 [17]: inactive; MIC50 (Streptococcus pneumoniae [20]): > 4 µg/mL; MIC90 (Streptococcus pneumoniae [20]): > 4 µg/mL
CCC[C@@H]1C[C@@H](C(=O)N[C@@H]([C@H]2O[C@H](SC)[C@H](O)[C@@H](O)[C@H]2O)[C@H](C)Cl)N(C)C1 [CLINDAMYCIN] | 0.06 (≈ 0.141 µM) | ≤ 0.03 | inactive | inactive | ≤ 0.03 | 0.06 (≈ 0.141 µM) | 83 | 0.06 (≈ 0.141 µM) | 0.5 (≈ 1.18 µM) | ≤ 0.03 | inactive | inactive | ≤ 0.03 | inactive | inactive | ≤ 0.03 | inactive | inactive | 0.06 (≈ 0.141 µM) | > 0.25 | MIC90 (Streptococcus pneumoniae [1]): > 0.25 µg/mL; Activity [2]: 88%; MIC (Streptococcus pyogenes [4]): ≤ 0.03 µg/mL; Activity (Streptococcus pyogenes [6]): 98%; MIC (Streptococcus pneumoniae [7]): 0.06 µg/mL (≈ 0.141 µM); Activity (Streptococcus pneumoniae [9]): 76%; Activity (Streptococcus agalactiae [10]): 86%; Activity (Streptococcus oralis [13]): 88%; Activity (Streptococcus viridans [14]): 88%; Activity (Streptococcus pneumoniae [15]): 73%; MIC [17]: ≤ 0.03 µg/mL; MIC50 [17]: inactive; MIC90 [17]: inactive; Activity [18]: 88%; Activity (Streptococcus mitis [19]): 88%; MIC50 (Streptococcus pneumoniae [20]): 0.06 µg/mL (≈ 0.141 µM); MIC90 (Streptococcus pneumoniae [20]): > 0.25 µg/mL
C[C@H]1COc2c(N3CCN(C)CC3)c(F)cc3c(=O)c(C(=O)O)cn1c23.C[C@H]1COc2c(N3CCN(C)CC3)c(F)cc3c(=O)c(C(=O)O)cn1c23.O [LEVOFLOXACIN] | 0.5 | ≤ 0.12 | inactive | inactive | 0.5 | 1 | 92 | 0.5 | 1 | ≤ 0.12 | inactive | inactive | ≤ 0.12 | inactive | inactive | ≤ 0.12 | inactive | inactive | 0.5 | 1 | MIC90 (Streptococcus pneumoniae [1]): 1 µg/mL; Activity [2]: 100%; Activity (Streptococcus pyogenes [6]): 98%; Activity (Streptococcus pneumoniae [9]): 97%; Activity (Streptococcus agalactiae [10]): 99%; Activity (Streptococcus oralis [13]): 100%; Activity (Streptococcus viridans [14]): 100%; Activity (Streptococcus pneumoniae [15]): 95%; MIC [17]: ≤ 0.12 µg/mL; MIC50 [17]: inactive; MIC90 [17]: inactive; Activity [18]: 100%; Activity (Streptococcus mitis [19]): 100%; MIC50 (Streptococcus pneumoniae [20]): 0.5 µg/mL; MIC90 (Streptococcus pneumoniae [20]): 1 µg/mL
CC1(C)S[C@@H]2[C@H](NC(=O)Cc3ccccc3)C(=O)N2[C@H]1C(=O)O [PENICILLIN G] | 2 (≈ 5.98 µM) | ≤ 0.06 | inactive | inactive | ≤ 0.06 | ≤ 0.06 | 0 | 1 (≈ 2.99 µM) | 1 (≈ 2.99 µM) | ≤ 0.06 | inactive | inactive | ≤ 0.06 | inactive | inactive | ≤ 0.06 | inactive | inactive | ≤ 0.06 | ≤ 0.06 | MIC90 (Streptococcus pneumoniae [1]): > 2 µg/mL; Activity [2]: 62%; MIC (Streptococcus pyogenes [4]): ≤ 0.06 µg/mL; Activity (Streptococcus pyogenes [6]): 93%; Activity (Streptococcus agalactiae [10]): 96%; Activity (Streptococcus oralis [13]): 62%; Activity (Streptococcus viridans [14]): 62%; MIC (Streptococcus agalactiae [16]): ≤ 0.06 µg/mL; MIC [17]: ≤ 0.06 µg/mL; MIC50 [17]: inactive; MIC90 [17]: inactive; Activity [18]: 62%; Activity (Streptococcus mitis [19]): 62%; MIC (Streptococcus pneumoniae [20]): 2 µg/mL (≈ 5.98 µM); MIC50 (Streptococcus pneumoniae [20]): 2 µg/mL (≈ 5.98 µM); MIC90 (Streptococcus pneumoniae [20]): > 2 µg/mL
CN(C)[C@@H]1C(O)=C(C(N)=O)C(=O)[C@@]2(O)C(O)=C3C(=O)c4c(O)cccc4[C@@](C)(O)[C@H]3C[C@@H]12 [TETRACYCLINE] | > 8 | 0.12 (≈ 0.27 µM) | inactive | inactive | 0.12 (≈ 0.27 µM) | 4 (≈ 9 µM) | 67 | 0.12 (≈ 0.27 µM) | > 8 | 0.12 (≈ 0.27 µM) | inactive | inactive | 0.12 (≈ 0.27 µM) | inactive | inactive | 0.12 (≈ 0.27 µM) | inactive | inactive | > 8 | > 8 | Activity [2]: 75%; Activity (Streptococcus pyogenes [6]): 89%; Activity (Streptococcus pneumoniae [9]): 41%; Activity (Streptococcus agalactiae [10]): 16%; Activity (Streptococcus oralis [13]): 75%; Activity (Streptococcus viridans [14]): 75%; Activity (Streptococcus pneumoniae [15]): 37%; MIC [17]: 0.12 µg/mL (≈ 0.27 µM); MIC50 [17]: inactive; MIC90 [17]: inactive; Activity [18]: 75%; Activity (Streptococcus mitis [19]): 75%; MIC50 (Streptococcus pneumoniae [20]): > 8 µg/mL
